# “Also recorded” adds a separate entry of the source. Like-named read-outs stand apart in the source and are kept apart here.
# Legend:
# [1] = parameters: method as in guideline OPPTS 830.7570; conditions: reference substances for calibration, Tables S1–S6; ref guideline OPPTS 830.7570; cited from earlier work
# [2] = Cyclic voltammetry, anodic peak potential (oxidizability); format: physicochemical; conditions: 0.1 M Tris‐HCl buffer pH 7.4, −0.5 to 1.0 V, sweep rate 0.1 V/s, –[b] = no oxidation observed in the specified potential range
# [3] = test system: TAMH mouse liver cell line; conditions: mouse, 24 h
# [4] = test system: HEP‐G2 human hepatoma cell line; conditions: human, 24 h
# [5] = parameters: method as in PMID 25264565; conditions: oral administration of 400 mg flupirtine, modified release dosage form once daily for 8 days; cited from earlier work
# [6] = parameters: method as in earlier work; conditions: severe but sporadic hepatotoxic events; cited from earlier work
# KV7.2/3 channel [7] = target: T1, KV7.2/3 channel (Homo sapiens, UniProt O43525+O43526); experiment: KV7.2/3 channel opening activity, thallium-flux FLIPR Potassium Assay in HEK-293 cells overexpressing KV7.2/3; parameters: Emax: dose or concentration left out as unconfirmed; conditions: for Emax: HEK293E, read-out: Efficacy
# T1 sequence (O43525 whole entry): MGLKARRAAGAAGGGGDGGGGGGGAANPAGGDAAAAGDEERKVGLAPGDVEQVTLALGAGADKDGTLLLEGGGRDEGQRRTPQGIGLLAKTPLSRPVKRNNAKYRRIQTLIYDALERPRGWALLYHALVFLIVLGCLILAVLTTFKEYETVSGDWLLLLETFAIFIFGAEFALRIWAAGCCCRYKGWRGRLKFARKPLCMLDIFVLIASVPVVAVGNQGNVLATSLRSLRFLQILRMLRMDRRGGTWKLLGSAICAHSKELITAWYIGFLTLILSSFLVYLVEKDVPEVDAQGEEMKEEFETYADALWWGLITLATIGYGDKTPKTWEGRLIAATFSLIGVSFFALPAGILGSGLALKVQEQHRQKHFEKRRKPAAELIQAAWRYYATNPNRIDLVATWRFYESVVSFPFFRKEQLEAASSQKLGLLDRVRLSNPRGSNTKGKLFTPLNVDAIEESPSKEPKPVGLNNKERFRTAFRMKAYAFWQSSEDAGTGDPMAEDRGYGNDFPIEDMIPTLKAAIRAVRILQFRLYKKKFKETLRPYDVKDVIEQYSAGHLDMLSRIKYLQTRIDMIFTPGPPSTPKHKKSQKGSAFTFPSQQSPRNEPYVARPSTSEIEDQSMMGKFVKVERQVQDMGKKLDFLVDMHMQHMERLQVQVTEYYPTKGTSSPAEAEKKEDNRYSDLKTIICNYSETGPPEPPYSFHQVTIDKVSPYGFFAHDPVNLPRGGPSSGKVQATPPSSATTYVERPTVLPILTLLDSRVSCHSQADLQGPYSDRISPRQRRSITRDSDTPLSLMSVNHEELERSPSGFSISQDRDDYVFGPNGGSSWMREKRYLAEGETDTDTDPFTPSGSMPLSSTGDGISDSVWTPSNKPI
# T1 sequence (O43526 whole entry): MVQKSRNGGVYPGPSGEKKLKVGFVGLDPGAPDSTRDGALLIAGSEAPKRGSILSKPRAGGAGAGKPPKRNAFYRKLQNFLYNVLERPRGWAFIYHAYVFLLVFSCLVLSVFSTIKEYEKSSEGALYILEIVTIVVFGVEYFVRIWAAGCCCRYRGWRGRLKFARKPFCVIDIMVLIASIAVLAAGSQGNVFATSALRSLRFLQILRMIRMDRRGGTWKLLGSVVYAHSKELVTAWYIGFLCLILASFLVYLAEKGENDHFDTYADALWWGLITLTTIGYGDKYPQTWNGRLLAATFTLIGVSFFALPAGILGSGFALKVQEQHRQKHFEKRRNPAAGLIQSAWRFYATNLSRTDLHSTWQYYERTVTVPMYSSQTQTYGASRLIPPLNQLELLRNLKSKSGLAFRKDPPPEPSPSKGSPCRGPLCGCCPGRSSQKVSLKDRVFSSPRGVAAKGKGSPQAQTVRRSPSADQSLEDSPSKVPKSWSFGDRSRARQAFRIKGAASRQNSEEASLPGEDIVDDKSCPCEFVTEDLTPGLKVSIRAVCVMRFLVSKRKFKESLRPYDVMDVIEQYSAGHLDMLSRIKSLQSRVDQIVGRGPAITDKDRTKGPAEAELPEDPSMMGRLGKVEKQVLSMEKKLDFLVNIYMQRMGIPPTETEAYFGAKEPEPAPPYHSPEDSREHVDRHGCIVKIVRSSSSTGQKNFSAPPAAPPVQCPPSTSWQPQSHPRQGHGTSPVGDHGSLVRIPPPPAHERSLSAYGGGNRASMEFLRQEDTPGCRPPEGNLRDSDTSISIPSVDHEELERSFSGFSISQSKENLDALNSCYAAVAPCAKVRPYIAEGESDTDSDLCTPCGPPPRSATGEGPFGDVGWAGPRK
# KV7.2/3 channel [8] = target: T1, KV7.2/3 channel; parameters: method as in PMID 30990511; conditions: previous work; cited from earlier work
# [9] = LogD7.4 estimation by HPLC-based method; format: physicochemical; conditions: for logD7.4 (single determination): calculated from retention time with one calibration function (A–F)
# Protocol: The logarithm of the capacity factors of the reference substances was then plotted against the corresponding logP values taken from the mentioned guideline to obtain a calibration function. For non‐ionizable compounds like the reference substances used for calibration, logP values can be considered equivalent to the logD 7.4 values. To obtain a reference mixture, 2 mg of the reference substances were each dissolved in 1 mL of methanol, and 50 μL aliquots of each reference solution were subsequently combined. The reference mixture was measured before and after the substances to be tested, and the mean retention time from both measurements was used to calculate the calibration function. The calibration function was then used to determine the logD 7.4 values from the corresponding retention times for each substance to be tested. The compounds of interest were injected as a solution in methanol (2 mg/mL), and the retention time was determined as the mean value from two measurements.
# [10] = pH 7.4, calculated from retention time with one calibration function (A–F), Table S7, read-out: logD7.4 (single determination)
# [11] = pH 7.4, estimated by HPLC-based method, pH 7.4, read-out: LogD 7.4
smiles,measurement,setting,value
"CCCC(=O)Nc1ccc(CNc2ccc(F)cc2)cn1 [compound 44, N ‐(5‐{[(4‐Fluorophenyl)amino]methyl}pyridin‐2‐yl)butyramide]",melting point,,92 °C
O=C(Oc1ccccc1)c1ccccc1 [Phenyl benzoate],logD (Lit.),[1],3.6
CCOC(=O)c1ccccc1 [Ethyl benzoate],logD (Lit.),[1],2.6
"CCOC(=O)Nc1ccc(NCc2ccc(F)cc2)nc1N [Flu, flupirtine]",Ep.a. (anodic peak potential),[2],306 mV
same,LD25 (concentration to reduce cell viability by 25 %),[3],103 ± 47 µM
same,LD25 values (range over both liver cell lines),[3]; human,74 to 103 µM
same,LD25 (concentration to reduce cell viability by 25 %),[4],74 ± 40 µM
same,peak plasma concentration,[5],1.6 µM
same,reporting rate of hepatotoxic events,[6],"1.68 cases/100,000 patient‐years"
same,Emax,KV7.2/3 channel [7],100%
CCOC(=O)Nc1ccc(NCc2ccc(F)cc2)nc1C [compound 6],KV7.2/3 opening potency (in words),KV7.2/3 channel [8],equipotent to flupirtine
"Cc1cc(CNc2ccc(F)cc2F)ccc1NC(=O)c1cccnc1 [35 e, N ‐(4‐{[(2,4‐Difluorophenyl)amino]methyl}‐2‐methylphenyl)nicotinamide]",logD7.4 (single determination),[9]; Table S7,2.952
same,chromatographic logD,[9]; [10],2.97
same,chromatographic logD,[9]; [11],3
same,Ep.a. (anodic peak potential),[2],no anodic peak potential could be determined; also recorded: –^[b]
same,LD25 (concentration to reduce cell viability by 25 %),[3],41 ± 11 µM
same,LD50 (concentration to reduce cell viability by 50 %),[3],>125 µM
same,LD25 (concentration to reduce cell viability by 25 %),[4],61 ± 7 µM
same,LD50 (concentration to reduce cell viability by 50 %),[4],107 ± 16 µM
same,KV7.2/3 opening activity (in words),KV7.2/3 channel [7]; HEK‐293 cells overexpressing KV7.2/3,inactive
same,EC50 (required concentration to reach half‐maximal KV7.2/3 channel opening activity),"KV7.2/3 channel [7]; HEK‐293 cells overexpressing KV7.2/3, mean ± SD, at least three determinations, –[e] = inactive up to a concentration of 20 μM",–^[e]
same,Efficacy,"KV7.2/3 channel [7]; maximal fluorescence signal relative to flupirtine (100 %), HEK‐293, –[e] = inactive up to a concentration of 20 μM",–^[e]
"CCCC(=O)Nc1ccc(CNc2ccc(F)cc2)cc1C [35 b, N ‐(4‐{[(4‐Fluorophenyl)amino]methyl}‐2‐methylphenyl)butyramide]",logD7.4 (single determination),[9]; Table S7,2.870
same,chromatographic logD,[9]; [10],2.88
same,chromatographic logD,[9]; [11],2.9
same,Ep.a. (anodic peak potential),[2],618 mV
same,LD25 (concentration to reduce cell viability by 25 %),[3],>125 µM
same,LD50 (concentration to reduce cell viability by 50 %),[3],>125 µM
same,LD25 (concentration to reduce cell viability by 25 %),[4],88 ± 9 µM
same,LD50 (concentration to reduce cell viability by 50 %),[4],>125 µM
same,EC50,KV7.2/3 channel [7],675 ± 276 nM
same,Emax,KV7.2/3 channel [7],176 ± 14%
